Reference: ChEMBL document CHEMBL6121016, “Design, Synthesis, and Biological Evaluation of 1,3,4-Thiadiazole Derivatives as Novel Potent Peptide Deformylase Inhibitors for Combating Drug-Resistant Gram-Positive and -Negative Bacteria” (J Med Chem, 2025)
≈ marks a conversion by molar mass, not a printed value.

How the values were obtained:
Format in all cases: functional
Conditions in all cases: time 16-18 hrs
Staphylococcus aureus [1] = experiment: Antibacterial activity against methicillin-susceptible Staphylococcus aureus ATCC 13709 after 16 to 18 hrs by broth microdilution method
Klebsiella pneumoniae = experiment: Antibacterial activity against Klebsiella pneumoniae CICC 21611 after 16 to 18 hrs by broth microdilution method
Staphylococcus aureus [2] = experiment: Antibacterial activity against methicillin-susceptible Staphylococcus aureus ATCC 25923 after 16 to 18 hrs by broth microdilution method
[3] = test system: Staphylococcus epidermidis; experiment: Antibacterial activity against Staphylococcus epidermidis after 16 to 18 hrs by broth microdilution method
Staphylococcus aureus [4] = experiment: Antibacterial activity against methicillin-resistant Staphylococcus aureus ATCC 33591 after 16 to 18 hrs by broth microdilution method
Staphylococcus aureus [5] = experiment: Antibacterial activity against methicillin-resistant Staphylococcus aureus Bio-090770 after 16 to 18 hrs by broth microdilution method
Staphylococcus aureus [6] = experiment: Antibacterial activity against methicillin-susceptible Staphylococcus aureus ATCC 29213 after 16 to 18 hrs by broth microdilution method
Escherichia coli = experiment: Antibacterial activity against Escherichia coli ATCC 25922 after 16 to 18 hrs by broth microdilution method
Acinetobacter baumannii [7] = experiment: Antibacterial activity against Acinetobacter baumannii Bio 34235 after 16 to 18 hrs by broth microdilution method
Acinetobacter baumannii [8] = experiment: Antibacterial activity against drug-resistant Acinetobacter baumannii Bio 53272 after 16 to 18 hrs by broth microdilution method
Staphylococcus aureus [9] = experiment: Antibacterial activity against methicillin-resistant Staphylococcus aureus ATCC 43300 after 16 to 18 hrs by broth microdilution method

| SMILES | MIC (Staphylococcus aureus [1]) [µg/mL] | MIC (Klebsiella pneumoniae) [µg/mL] | MIC (Staphylococcus aureus [2]) [µg/mL] | MIC [3] [µg/mL] | MIC (Staphylococcus aureus [4]) [µg/mL] | MIC (Staphylococcus aureus [5]) [µg/mL] | MIC (Staphylococcus aureus [6]) [µg/mL] | MIC (Escherichia coli) [µg/mL] | MIC (Acinetobacter baumannii [7]) [µg/mL] | MIC (Acinetobacter baumannii [8]) [µg/mL] | MIC (Staphylococcus aureus [9]) [µg/mL] |
| --- | --- | --- | --- | --- | --- | --- | --- | --- | --- | --- | --- |
| CCCC[C@H](CN(O)C=O)C(=O)N1CCC[C@H]1c1nnc(-c2ccc(C#N)cc2F)s1 | 0.125 (≈ 0.281 µM) | > 16 | 0.125 (≈ 0.281 µM) | 2 (≈ 4.49 µM) | 0.125 (≈ 0.281 µM) | 0.5 (≈ 1.12 µM) | 0.25 (≈ 0.561 µM) | 8 (≈ 18 µM) | > 16 | 8 (≈ 18 µM) | 0.125 (≈ 0.281 µM) |
| CCCC[C@H](CN(O)C=O)C(=O)N1CCC[C@H]1c1nnc(-c2cc(C(F)(F)F)cc(C(F)(F)F)c2)s1 | 2 (≈ 3.71 µM) | > 16 | 2 (≈ 3.71 µM) | > 16 | 2 (≈ 3.71 µM) | 4 (≈ 7.43 µM) | 4 (≈ 7.43 µM) | > 16 | > 16 | > 16 | 2 (≈ 3.71 µM) |
| CCCC[C@H](CN(O)C=O)C(=O)N1CCC[C@H]1c1nnc(C2CC2)s1 | 2 (≈ 5.46 µM) | > 16 | 2 (≈ 5.46 µM) | 0.5 (≈ 1.36 µM) | 1 (≈ 2.73 µM) | 4 (≈ 10.9 µM) | 4 (≈ 10.9 µM) | > 16 | > 16 | > 16 | 1 (≈ 2.73 µM) |
| CCCC[C@H](CN(O)C=O)C(=O)N1CCC[C@H]1c1nnc(C2CCCCC2)s1 | 2 (≈ 4.9 µM) | > 16 | 2 (≈ 4.9 µM) | 4 (≈ 9.79 µM) | 0.5 (≈ 1.22 µM) | 2 (≈ 4.9 µM) | 2 (≈ 4.9 µM) | > 16 | > 16 | > 16 | 1 (≈ 2.45 µM) |
| CCCC[C@H](CN(O)C=O)C(=O)N1CCC[C@H]1c1nnc(-c2ccsc2)s1 | 4 (≈ 9.79 µM) | 32 (≈ 78.3 µM) | 1 (≈ 2.45 µM) | 2 (≈ 4.9 µM) | 0.25 (≈ 0.612 µM) | 4 (≈ 9.79 µM) | 1 (≈ 2.45 µM) | 64 (≈ 157 µM) | 32 (≈ 78.3 µM) | 16 (≈ 39.2 µM) | 0.25 (≈ 0.612 µM) |
| CCCC[C@H](CN(O)C=O)C(=O)N1CCC[C@H]1c1nnc(-c2ccc[nH]2)s1 | 1 (≈ 2.55 µM) | > 16 | 1 (≈ 2.55 µM) | 0.5 (≈ 1.28 µM) | 0.25 (≈ 0.639 µM) | 4 (≈ 10.2 µM) | 1 (≈ 2.55 µM) | > 16 | > 16 | > 16 | 0.5 (≈ 1.28 µM) |
| CCCC[C@H](CN(O)C=O)C(=O)N1CCC[C@H]1c1nnc(-c2sccc2F)s1 | 0.5 (≈ 1.17 µM) | 16 (≈ 37.5 µM) | 0.5 (≈ 1.17 µM) | 1 (≈ 2.34 µM) | 0.5 (≈ 1.17 µM) | 2 (≈ 4.69 µM) | 0.5 (≈ 1.17 µM) | 64 (≈ 150 µM) | 16 (≈ 37.5 µM) | 16 (≈ 37.5 µM) | 0.5 (≈ 1.17 µM) |
| CCCC[C@H](CN(O)C=O)C(=O)N1CCC[C@H]1c1nnc(-c2cscn2)s1 | 1 (≈ 2.44 µM) | 32 (≈ 78.1 µM) | 1 (≈ 2.44 µM) | 0.25 (≈ 0.61 µM) | 0.5 (≈ 1.22 µM) | 2 (≈ 4.88 µM) | 1 (≈ 2.44 µM) | 64 (≈ 156 µM) | 64 (≈ 156 µM) | 16 (≈ 39.1 µM) | 0.5 (≈ 1.22 µM) |
| CCCC[C@H](CN(O)C=O)C(=O)N1CCC[C@H]1c1nnc(-c2ccc(OC)c(OC)c2)s1 | 1 (≈ 2.16 µM) | > 16 | 1 (≈ 2.16 µM) | 2 (≈ 4.32 µM) | 0.25 (≈ 0.54 µM) | 1 (≈ 2.16 µM) | 0.5 (≈ 1.08 µM) | > 16 | > 16 | 16 (≈ 34.6 µM) | 0.25 (≈ 0.54 µM) |
| CCCC[C@H](CN(O)C=O)C(=O)N1CCC[C@H]1c1nnc(C2CCCC2)s1 | 2 (≈ 5.07 µM) | > 16 | 1 (≈ 2.53 µM) | 1 (≈ 2.53 µM) | 0.5 (≈ 1.27 µM) | 2 (≈ 5.07 µM) | 2 (≈ 5.07 µM) | > 16 | > 16 | 8 (≈ 20.3 µM) | 0.5 (≈ 1.27 µM) |
| CCCC[C@H](CN(O)C=O)C(=O)N1CCC[C@H]1c1nnc(-c2cccc3ccccc23)s1 | 16 (≈ 35.4 µM) | > 16 | 16 (≈ 35.4 µM) | 2 (≈ 4.42 µM) | 4 (≈ 8.84 µM) | 16 (≈ 35.4 µM) | 16 (≈ 35.4 µM) | > 16 | > 16 | > 16 | 16 (≈ 35.4 µM) |
| CCCC[C@H](CN(O)C=O)C(=O)N1CCC[C@H]1c1nnc(-c2ccnc(C(F)(F)F)c2)s1 | 0.5 (≈ 1.06 µM) | 64 (≈ 136 µM) | 0.5 (≈ 1.06 µM) | 1 (≈ 2.12 µM) | 0.25 (≈ 0.53 µM) | 1 (≈ 2.12 µM) | 0.5 (≈ 1.06 µM) | 128 (≈ 271 µM) | 64 (≈ 136 µM) | 16 (≈ 33.9 µM) | 0.25 (≈ 0.53 µM) |
| CCCC[C@H](CN(O)C=O)C(=O)N1CCC[C@H]1c1nnc(-c2cc(OC)c(OC)c(OC)c2)s1 | 0.5 (≈ 1.02 µM) | > 16 | 1 (≈ 2.03 µM) | 2 (≈ 4.06 µM) | 0.25 (≈ 0.508 µM) | 1 (≈ 2.03 µM) | 4 (≈ 8.12 µM) | > 16 | > 16 | > 16 | 0.5 (≈ 1.02 µM) |
